Like-named read-outs stand apart in the source and are kept apart here.
Columns and labels:
human integrin αvβ6 = molecular target: T1, human integrin αvβ6 (Homo sapiens, UniProt P06756+P18564, DEL708-788); experiment: Competition binding (IC50) against yeast surface-displayed R01-MG; details: for binding affinity for integrin avb6 in competition binding (IC50), in words: compete with R01-MG displayed on yeast
T1 construct: purchased R&D Systems

Sprague Dawley rats = format: in vivo, rat
Protocol: Groups of 5 animals sex^−1 were sacrificed on Study Days 3 (48 h) and 15 for evaluation of clinical pathology and organ toxicity. […] Parameters evaluated for test article effect included survival, clinical observations, body weight, body weight gain, clinical pathology, gross pathology, organ weights, and microscopic pathology.
The purpose of this study was to evaluate the toxicity of [19F]FP-R 1-MG-F2 following a single […]
intra ven ous dose in rats. This study consisted of one test article treatment group of ten male and ten fem ale Spr ague-Dawley rats dosed with [19F]FP-R 1-MG-F2 (note - sm all m olecule […]
[…] An additio na l grou p of ten m ales and ten females received the vehicle, 10% Ethanol in Sterile Saline, and ser ved as the control. All rats received a dose volum e of 5 m L/k g. T he rats were dosed intravenous ly onc e on Stud y Da y 1.
Five m ale and five fem ale rats from each group were bled on Stud y Da y 3 and the rem aining rats were bled on Stud y D ay 15. All an im als were e u than ized a nd necrops ied f ollo wing b loo d collect ion . Param eters evalu ated f or test art icle ef f ect inclu ded sur viva l, clin ica l obser vat ions, bod y weight, bod y weight gain, clinical patholog y, gross pathology, organ weights, and […]
the study. No abnorm al findings were indicated dur ing mortality checks (cagesides) or hands-on […]
be related to treatm ent related.
Under the conditions of this study, there were no treatm ent related findings in Sprague Dawley rats three or fifteen da ys after a single intravenous dose of [19F]FP-R01-MG-F2 at 1.10 mg/kg. […]
intravenous dose in rats. […]
The test article (TA), [19F]FP-R 1-MG-F2, was received from the Sponsor on Aug ust 25, […]
2014, described as a wh ite po wd er . The test article was stored frozen in a g lass vial.
Copies of the Test Artic le Data Sheets are included in Appendix D.
Note: Test article nam e as per the Qualit y Control Record (Appendix D) is listed as FP-GLY-36-Gly-NH2, which represents the chem ical structure. T he test article is referred to b y the comm ercial nam e provided b y the client ([19F]FP-R 1-MG-F2) throughout this report and […]
Name Lot No. Supplier Purit y
The vehicle used in this study was 10% Ethanol in Sterile Saline (0.9% sodium chloride, USP). The vehic le com ponents were purchased commercially b y SoBran and stored at room tem perature in accordance with the m anufacturer instructions. Copies of the Certificate of Anal yses for the lots of 10% Ethanol and Sterile Saline used are included in […]
Name Lot No. Supplier Concentration
Etha no l (20 0 pro of ), USP SHBB0 212 V Sigm a Aldrich; Sa int 99.87% […]
0.9% Sod ium Chlor ide, USP C886374 Baxter; C le ve lan d, 0.888% […]
The 0.22 mg/mL test article solution was pr epar ed b y adding 40 mL of 10% ethanol solution (vehicle control) to 8.8 mg of the test article, mixed gently, and then filtered using a 2µ sterile syringe filter. The pH of the 10% ethanol solution wa s adj us ted us ing HCl and NaO H to achieve a pH of 7.4. The vehicle was passed through a 2µ sterile syringe filter af t er pH […]
On October 2, 2014, 21 male and 21 female Sprague-Dawle y rats were obtained from Harlan, Frederick , MD. The supplier verified that the anim als were free of specific active inf ectious dise ases prior to arriva l at the SoBra n f acilit y. At init iat ion of dosing , the m ale and fem ale rats were 7 week s of age, (Date of Birth: 8/15/14). At ra ndom iza tion th e bod y weights of the rats used on stud y ranged from 199.05 to 218.61 gram s (m ales) […]
Rats were chosen for use in this stud y since the y are considered an acceptable anim al model for the rodent species for acute toxicity tests prior to clinical use.
The animals were housed following the specifications recommended in The Guide for the […]

pancreatic cancer = experiment: [18F]FP-R01-MG-F2 vs [18F]FDG PET/CT in a pancreatic cancer patient (Stanford); details: FDG, 1 hr
Protocol: The line was flushed with at least 10 ml normal saline after injection. • Blood samples for blood time activity measurements were taken at 1, 3, 5, and 10 min after tracer administration and then at 30-minute intervals for up to 3 h after tracer injection. The counts in whole blood and plasma were measured by gamma counter (Perkin Elmer Wizard 1470). […] The scan was performed over the abdominal region to include the pancreas. Attenuation correction was employed via CT (120 kV, 10 mA). […] The scan was performed over the chest region. Attenuation correction was employed via CT (120 kV, 10 mA). • Static total-body (vertex-to-toe) PET/CT scans were acquired at 60 min and 120 min post injection. CT was performed at 120 kV; it was dose-modulated based on body habitus with current ranging from 10-105 mA for the 60-minute scan. […] EKG data was analyzed to assess changes in overall rhythm of the heart. • On the day of the study, participants were asked to void frequently to reduce radiation exposure. Urine samples were collected at prior to tracer administration (baseline), prior to the static PE scans, at the end of the study day 1, and at the follow up visits 1 day and 7 days after tracer administration.
Upon co-registration of the PET and CT images, the CT images were used to determine regions of interest for the organs or tissues reported in the manuscript. These ROIs were applied to the PET images of the brain, pituitary gland, breast, lower and upper large intestine, small intestine, stomach, pancreas, heart wall, liver, lung, muscle, red marrow, bone, skin, and thyroid gland. For high uptake organs such as the kidneys, bladder and for the whole body, threshold-based segmentation of PET images were used to determine a close-fitting ROI around the entire organ or whole body. In order to determine accuracy, these PET-derived ROIs were compared to the CT overlay for a close match.

[1] = Day 3, Group 2 males, p < 0.05, within historical range

T1 sequence (P06756 31-992 limits assumed, stated change not applied): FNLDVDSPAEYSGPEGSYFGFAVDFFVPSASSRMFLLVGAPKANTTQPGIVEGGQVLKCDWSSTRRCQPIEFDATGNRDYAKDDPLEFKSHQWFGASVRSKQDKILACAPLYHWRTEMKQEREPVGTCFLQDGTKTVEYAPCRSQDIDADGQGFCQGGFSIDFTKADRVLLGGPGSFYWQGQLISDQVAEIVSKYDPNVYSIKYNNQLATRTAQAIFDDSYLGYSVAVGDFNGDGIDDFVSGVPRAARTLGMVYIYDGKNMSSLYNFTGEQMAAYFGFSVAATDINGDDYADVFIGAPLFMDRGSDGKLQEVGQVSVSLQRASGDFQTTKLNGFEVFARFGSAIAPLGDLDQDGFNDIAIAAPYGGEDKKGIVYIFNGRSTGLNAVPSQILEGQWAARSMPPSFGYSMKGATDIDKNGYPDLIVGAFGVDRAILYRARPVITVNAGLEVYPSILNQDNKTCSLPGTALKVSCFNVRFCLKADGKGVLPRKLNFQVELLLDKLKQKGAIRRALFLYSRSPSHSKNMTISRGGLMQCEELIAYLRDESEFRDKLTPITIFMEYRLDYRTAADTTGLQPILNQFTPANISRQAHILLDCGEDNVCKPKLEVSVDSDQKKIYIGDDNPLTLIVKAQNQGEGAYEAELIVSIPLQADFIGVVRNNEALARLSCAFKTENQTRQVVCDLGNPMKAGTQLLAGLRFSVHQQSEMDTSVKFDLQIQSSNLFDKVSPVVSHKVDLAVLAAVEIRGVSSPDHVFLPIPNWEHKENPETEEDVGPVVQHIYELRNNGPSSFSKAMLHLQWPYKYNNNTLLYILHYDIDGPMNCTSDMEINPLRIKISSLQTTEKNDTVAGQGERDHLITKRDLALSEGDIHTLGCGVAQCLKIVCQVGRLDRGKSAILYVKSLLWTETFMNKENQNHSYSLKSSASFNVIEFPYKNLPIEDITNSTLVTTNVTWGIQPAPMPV
T1 sequence (P18564 22-707 limits assumed, stated change not applied): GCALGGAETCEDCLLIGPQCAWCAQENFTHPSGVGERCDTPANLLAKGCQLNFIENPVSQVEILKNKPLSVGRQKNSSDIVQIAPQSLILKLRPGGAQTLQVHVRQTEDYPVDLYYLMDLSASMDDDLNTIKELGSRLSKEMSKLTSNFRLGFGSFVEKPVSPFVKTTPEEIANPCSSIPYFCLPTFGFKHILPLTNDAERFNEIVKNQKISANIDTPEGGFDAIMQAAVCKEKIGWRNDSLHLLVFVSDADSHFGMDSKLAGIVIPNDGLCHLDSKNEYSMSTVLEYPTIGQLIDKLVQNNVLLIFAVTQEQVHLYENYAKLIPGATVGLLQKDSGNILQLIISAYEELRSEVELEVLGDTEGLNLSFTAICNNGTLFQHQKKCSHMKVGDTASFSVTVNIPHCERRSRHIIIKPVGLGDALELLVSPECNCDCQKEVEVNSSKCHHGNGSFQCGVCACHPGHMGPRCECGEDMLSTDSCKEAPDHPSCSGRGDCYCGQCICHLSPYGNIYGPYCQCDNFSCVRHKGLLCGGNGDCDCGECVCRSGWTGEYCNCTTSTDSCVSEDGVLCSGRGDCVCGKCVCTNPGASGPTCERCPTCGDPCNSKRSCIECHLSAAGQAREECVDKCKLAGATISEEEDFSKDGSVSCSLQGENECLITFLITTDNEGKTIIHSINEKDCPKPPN

## CC[C@H](C)[C@@H]1NC(=O)[C@@H](NC(=O)CNC(=O)C(C)F)CSSC[C@@H]2NC(=O)[C@H](C)NC(=O)CNC(=O)[C@@H]3CCCN3C(=O)[C@@H]3CSSC[C@@H](C(=O)NCC(N)=O)NC(=O)[C@H](Cc4ccc(O)cc4)NC(=O)CNC(=O)[C@H](CC(N)=O)NC(=O)CNC(=O)[C@H](CCCNC(=N)N)NC(=O)[C@H](CSSC[C@H](NC(=O)[C@H](CCCNC(=N)N)NC(=O)[C@H](Cc4ccccc4)NC(=O)[C@H](CC(C)C)NC(=O)[C@H](CC(C)C)NC(=O)[C@H]([C@@H](C)O)NC(=O)CNC(=O)[C@H](CC(C)C)NC(=O)[C@H](CC(=O)O)NC(=O)[C@H]([C@@H](C)O)NC(=O)[C@H](CCCNC(=N)N)NC(=O)CNC(=O)[C@H](CC(N)=O)NC(=O)[C@H](CC(C)C)NC1=O)C(=O)N[C@@H](CCCNC(=N)N)C(=O)N[C@@H](CCCNC(=N)N)C(=O)N[C@@H](CC(=O)O)C(=O)N[C@@H](CO)C(=O)N[C@@H](CC(=O)O)C(=O)N3)NC(=O)[C@H]([C@@H](C)CC)NC2=O (stereo partly shown) [[^19F]FP-R01-MG-F1]
Human integrin αvβ6
  binding affinity for integrin avb6 in competition binding (IC50), in words: subnanomolar

## CC[C@H](C)[C@@H]1NC(=O)[C@@H](NC(=O)CNC(=O)[C@@H](C)F)CSSC[C@@H]2NC(=O)[C@H](C)NC(=O)CNC(=O)[C@@H]3CCCN3C(=O)[C@@H]3CSSC[C@@H](C(=O)NCC(N)=O)NC(=O)[C@H](Cc4ccc(O)cc4)NC(=O)CNC(=O)[C@H](CC(N)=O)NC(=O)CNC(=O)[C@H](CCCNC(=N)N)NC(=O)[C@H](CSSC[C@H](NC(=O)[C@H](CCCNC(=N)N)NC(=O)[C@H](Cc4ccccc4)NC(=O)[C@H](CC(C)C)NC(=O)[C@H](CC(C)C)NC(=O)[C@H]([C@@H](C)O)NC(=O)CNC(=O)[C@H](CC(C)C)NC(=O)[C@H](CC(=O)O)NC(=O)[C@H]([C@@H](C)O)NC(=O)[C@H](CCCNC(=N)N)NC(=O)CNC(=O)[C@H](CC(N)=O)NC(=O)[C@H](CC(C)C)NC1=O)C(=O)N[C@@H](CCCNC(=N)N)C(=O)N[C@@H](CCCNC(=N)N)C(=O)N[C@@H](CC(=O)O)C(=O)N[C@@H](CO)C(=O)N[C@@H](CC(=O)O)C(=O)N3)NC(=O)[C@H]([C@@H](C)CC)NC2=O [[^19F]FP-R01-MG-F2]
Human integrin αvβ6
  IC50: 0.56 ± 0.46 nM
  binding affinity for integrin avb6 in competition binding (IC50), in words: subnanomolar
Sprague Dawley rats; Day 3, Group 2 females
  Organ weight, Brain, mean: 1.5766
  Organ weight, Eyes with optic nerve, mean: 0.2641
  Organ weight, Heart, mean: 0.6540
  Organ weight, Kidneys, mean: 1.2874
  Organ weight, Liver, mean: 5.9521
  Organ weight, Lungs, mean: 1.5304
  Organ weight, Ovaries, mean: 0.1595
  Organ weight, Spleen, mean: 0.4955
  Organ weight, Thyroid (both lobes with parathyroid), mean: 0.0479
Sprague Dawley rats; Day 3, Group 2 males
  Organ weight, Brain, mean: 1.7081
  Organ weight, Eyes with optic nerve, mean: 0.3216
  Organ weight, Heart, mean: 0.9438
  Organ weight, Kidneys, mean: 1.7156
  Organ weight, Liver, mean: 8.4988
  Organ weight, Lungs, mean: 1.6368
  Organ weight, Spleen, mean: 0.6601
  Organ weight, Testes, mean: 2.9952
  Organ weight, Thyroid (both lobes with parathyroid), mean: 0.0299
Sprague Dawley rats; Day 3, Group 2 males, p < 0.05, not believed biologically meaningful
  alkaline phosphatase (ALP) vs control: increase
Sprague Dawley rats; [1]
  absolute large unstained cell counts (ALUC) vs control: increased
  absolute lymphocyte counts (ALY) vs control: increased
  absolute monocyte counts (AMO) vs control: increased
  white blood cell counts (WBC) vs control: increased
Sprague Dawley rats; Day 15, Group 2 females
  Organ weight, Brain, mean: 1.5915
  Organ weight, Eyes with optic nerve, mean: 0.2965
  Organ weight, Heart, mean: 0.7068
  Organ weight, Kidneys, mean: 1.3894
  Organ weight, Liver, mean: 7.3444
  Organ weight, Lungs, mean: 1.5063
  Organ weight, Ovaries, mean: 0.1569
  Organ weight, Spleen, mean: 0.5718
  Organ weight, Thyroid (both lobes with parathyroid), mean: 0.0355
Sprague Dawley rats; Day 15, Group 2 females, p < 0.05, within historical range
  activated partial thromboplastin time vs control: decrease
Sprague Dawley rats; Day 15, Group 2 males
  Organ weight, Brain, mean: 1.5942
  Organ weight, Eyes with optic nerve, mean: 0.3204
  Organ weight, Heart, mean: 1.0593
  Organ weight, Kidneys, mean: 2.1137
  Organ weight, Liver, mean: 11.2236
  Organ weight, Lungs, mean: 2.0208
  Organ weight, Spleen, mean: 0.6991
  Organ weight, Testes, mean: 3.5798
  Organ weight, Thyroid (both lobes with parathyroid), mean: 0.0238
Sprague Dawley rats; Day 15, Group 2 males, p < 0.05, within historical range
  mean corpuscular hemoglobin (MCH) vs control: increase
Sprague Dawley rats; Days 3 and 15, Group 2 males, p < 0.05, not believed biologically meaningful
  alanine aminotransferase (ALT) vs control: elevated
Sprague Dawley rats; […] single i.v.
  organ weights and microscopic pathology findings: No treatm ent-related findings
Sprague Dawley rats; p < 0.05, judged not treatment related
  bodyweights of treated females on Day 3 vs control: significant increase

## OC[C@H]1O[C@@H](O)[C@H]([18F])[C@@H](O)[C@@H]1O [FDG]
Pancreatic cancer
  Bl, PET uptake: 21.1
  Bn, PET uptake: 1.4
  Br, PET uptake: 8.1
  Brs, PET uptake: 0.32
  CA, PET uptake: 4.1
  HW, PET uptake: 2
  LLI, PET uptake: 2.2
  Ln, PET uptake: 0.59
  Lv, PET uptake: 2.9
  Ms, PET uptake: 0.53
  RM, PET uptake: 0.29
  SI, PET uptake: 2.5
  Sk, PET uptake: 0.38
  Sp, PET uptake: 2.9
  St, PET uptake: 0.16
  Tr, PET uptake: 0.9
  ULI, PET uptake: 1.8
  WB, PET uptake: 0.79
